Broadly, the Ki is the equilibrium dissociation constant of an inhibitor or competing ligand from its target.

Each structure is given as a SMILES string.

This experiment deals with T1, human NEP (Homo sapiens, UniProt P08473).
T1 construct: purchased R&D Systems, Minneapolis, Minn; 1182-ZN
T1 sequence (P08473 52-750 limits assumed): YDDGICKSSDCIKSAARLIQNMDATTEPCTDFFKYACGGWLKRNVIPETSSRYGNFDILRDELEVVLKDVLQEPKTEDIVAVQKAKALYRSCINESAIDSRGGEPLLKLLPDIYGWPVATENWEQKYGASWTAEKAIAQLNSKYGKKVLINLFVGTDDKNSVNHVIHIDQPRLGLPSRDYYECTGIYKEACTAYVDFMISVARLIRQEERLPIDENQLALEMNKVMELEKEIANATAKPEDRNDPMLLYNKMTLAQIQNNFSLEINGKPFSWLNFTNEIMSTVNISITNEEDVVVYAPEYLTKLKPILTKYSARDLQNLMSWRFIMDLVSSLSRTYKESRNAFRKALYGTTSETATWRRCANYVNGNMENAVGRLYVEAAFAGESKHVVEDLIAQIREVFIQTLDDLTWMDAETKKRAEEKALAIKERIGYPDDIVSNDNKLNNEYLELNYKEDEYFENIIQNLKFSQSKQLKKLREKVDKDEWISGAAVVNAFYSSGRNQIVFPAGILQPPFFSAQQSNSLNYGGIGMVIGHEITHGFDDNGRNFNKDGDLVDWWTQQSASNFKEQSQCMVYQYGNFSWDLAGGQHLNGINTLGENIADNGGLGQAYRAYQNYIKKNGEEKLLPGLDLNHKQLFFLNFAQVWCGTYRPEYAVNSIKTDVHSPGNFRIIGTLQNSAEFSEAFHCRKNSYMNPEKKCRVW
In words: In vitro enzyme inhibition assay, inhibitor potency at human NEP (Assay 1). It is filed as biochemical. The note with it: recombinant human NEP; fluorogenic peptide substrate 10 μM; 37° C.; values given as ranges. The procedure, abridged:
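Recombinant human NEP pre-incubated 30 min at 37 °C with compound ([…]), then 10 μM Mca-D-Arg-Arg-Leu-Dap-(Dnp)-OH added in 50 mM HEPES pH 7.5, 100 mM NaCl, 0.01% Tween-20, 10 μM ZnSO4; stopped after 20 min with acetic acid. Fluorescence ex 320/em 405 nm; Ki from nonlinear regression, reported as pKi.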
Take `O=C(N[C@H](Cc1ccc(-c2cccc(Cl)c2)cc1)C[C@@H](O)C(=O)O)C1CCCCO1` (stereo partly drawn) [Example 9, (2R,4R)-5-(3′-Chlorobiphenyl-4-yl)-2-hydroxy-4-[(tetrahydropyran-2-carbonyl)amino]pentanoic Acid]: the Ki is 0.001 to 0.01 µM. Turning to `O=C(CO)N[C@H](Cc1ccc(-c2cccc(Cl)c2)cc1)C[C@@H](O)C(=O)O` [Example 10-1, (2R,4R)-5-(3′-Chlorobiphenyl-4-yl)-2-hydroxy-4-(2-hydroxyacetylamino)-pentanoic acid], the Ki was 0.001 to 0.01 µM.

For the compound `COCC(=O)N[C@H](Cc1ccc(-c2cccc(Cl)c2)cc1)C[C@@H](O)C(=O)O` [Example 10-2, (2R,4R)-5-(3′-Chlorobiphenyl-4-yl)-2-hydroxy-4-(2-methoxyacetylamino)-pentanoic acid], the inhibition constant Ki is 0.001 to 0.01 µM.

On to `CCOCC(=O)N[C@H](Cc1ccc(-c2cccc(Cl)c2)cc1)C[C@@H](O)C(=O)O` [Example 10-3, (2R,4R)-5-(3′-Chlorobiphenyl-4-yl)-4-(2-ethoxyacetylamino)-2-hydroxy-pentanoic acid], for which the inhibition constant (Ki) was 0.01 to 0.0316 µM. Take `CC(C)OCC(=O)N[C@H](Cc1ccc(-c2cccc(Cl)c2)cc1)C[C@@H](O)C(=O)O` [Example 10-4, (2R,4R)-5-(3′-Chlorobiphenyl-4-yl)-2-hydroxy-4-(2-isopropoxyacetylamino)-pentanoic acid]: the Ki was 0.01 to 0.0316 µM. For the compound `O=C(COc1cccnc1)N[C@H](Cc1ccc(-c2cccc(Cl)c2)cc1)C[C@@H](O)C(=O)O` [Example 10-5, (2R,4R)-5-(3′-Chlorobiphenyl-4-yl)-2-hydroxy-4-[2-(pyridin-3-yloxy)-acetylamino]-pentanoic acid], the inhibitory constant (Ki) was 0.001 to 0.01 µM.

Take `O=C(COCc1ccccc1)N[C@H](Cc1ccc(-c2cccc(Cl)c2)cc1)C[C@@H](O)C(=O)O` [Example 10-6, (2R,4R)-4-(2-Benzyloxy-acetylamino)-5-(3′-chlorobiphenyl-4-yl)-2-hydroxy-pentanoic acid]: the Ki is 0.01 to 0.0316 µM.

Turning to `O=C(COc1ccccc1)N[C@H](Cc1ccc(-c2cccc(Cl)c2)cc1)C[C@@H](O)C(=O)O` [Example 10-7, (2R,4R)-5-(3′-Chlorobiphenyl-4-yl)-2-hydroxy-4-(2-phenoxyacetylamino)-pentanoic acid], the Ki was 0.01 to 0.0316 µM.

Consider `O=C(COc1ccc(O)cc1)N[C@H](Cc1ccc(-c2cccc(Cl)c2)cc1)C[C@@H](O)C(=O)O` [Example 10-8, (2R,4R)-5-(3′-Chlorobiphenyl-4-yl)-2-hydroxy-4-[2-(4-hydroxyphenoxy)-acetylamino]-pentanoic acid], for which the inhibition constant Ki is 0.01 to 0.0316 µM. Then `COc1cccc(OCC(=O)N[C@H](Cc2ccc(-c3cccc(Cl)c3)cc2)C[C@@H](O)C(=O)O)c1` [Example 10-9, (2R,4R)-5-(3′-Chlorobiphenyl-4-yl)-2-hydroxy-4-[2-(3-methoxyphenoxy)-acetylamino]-pentanoic acid], with 0.01 to 0.0316 µM; and `COCC(=O)N[C@H](Cc1ccc(-c2cccc(Cl)c2)cc1)C[C@@](C)(CO)C(=O)O` [Example 11, (2S,4R)-5-(3′-Chlorobiphenyl-4-yl)-2-hydroxymethyl-4-(2-methoxy-acetylamino)-2-methylpentanoic Acid], with 0.001 to 0.01 µM; and `C[C@@](CO)(C[C@@H](Cc1ccc(-c2cccc(Cl)c2)cc1)NC(=O)COCc1ccccc1)C(=O)O` [Example 12, (2S,4R)-4-(2-Benzyloxyacetylamino)-5-(3′-chlorobiphenyl-4-yl)-2-hydroxymethyl-2-methyl-pentanoic acid], with 0.01 to 0.0316 µM.

Take `C[C@@](CO)(C[C@@H](Cc1ccc(-c2cccc(Cl)c2)cc1)NC=O)C(=O)O` [Example 13, (2S,4R)-5-(3′-Chlorobiphenyl-4-yl)-4-formylamino-2-hydroxymethyl-2-methyl-pentanoic Acid]: the Ki was 0.001 to 0.01 µM.
